Laboratory results reported in ChEMBL document CHEMBL4609992, “Discovery of novel small molecule induced selective degradation of the bromodomain and extra-terminal (BET) bromodomain protein BRD4 and BRD2 with cellular potencies” (Bioorg Med Chem, 2020).

Tests used:
NCI-H358 = test: Antiproliferative activity against human NCI-H358 cells assessed as reduction in cell viability; format: functional, cell-based
HCC 2998 = test: Growth inhibition of human HCC2998 cells assessed as cell growth inhibition incubated for 48 hrs by sulforhodamine B assay; format: functional; conditions: HCC 2998, 48 h
NCI-H1975 = test: Antiproliferative activity against human NCI-H1975 cells assessed as reduction in cell viability; format: functional, cell-based
T47D = test: Growth inhibition of human T47D cells assessed as cell growth inhibition incubated for 48 hrs by sulforhodamine B assay; format: functional
RPMI-8226 = test: Antiproliferative activity against human RPMI8226 cells assessed as reduction in cell viability; format: functional, cell-based
OVCAR-8 = test: Growth inhibition of human OVCAR8 cells assessed as cell growth inhibition incubated for 48 hrs by sulforhodamine B assay; format: functional; conditions: OVCAR-8, 48 h
HCT-116 = test: Growth inhibition of human HCT116 cells assessed as cell growth inhibition incubated for 48 hrs by sulforhodamine B assay; format: functional; conditions: HCT-116, 48 h
SK-MEL-5 = test: Growth inhibition of human SK-MEL-5 cells assessed as cell growth inhibition incubated for 48 hrs by sulforhodamine B assay; format: functional; conditions: SK-MEL-5, 48 h
PC-3 = test: Growth inhibition of human PC3 cells assessed as cell growth inhibition incubated for 48 hrs by sulforhodamine B assay; format: functional; conditions: PC-3, 48 h
CAKI-1 = test: Growth inhibition of human Caki1 cells assessed as cell growth inhibition incubated for 48 hrs by sulforhodamine B assay; format: functional; conditions: CAKI-1, 48 h
MV4-11 [1] = test: Induction of apoptosis in human MV4-11 cells measured after 24 hrs by Annexin V-FITC/propidium iodide staining based FACScan flow cytometry; format: functional, cell-based
MDA-MB-468 = test: Growth inhibition of human MDA-MB-468 cells assessed as cell growth inhibition incubated for 48 hrs by sulforhodamine B assay; format: functional; conditions: MDA-MB-468, 48 h
A549 = test: Antiproliferative activity against human A549 cells assessed as reduction in cell viability; format: functional, cell-based
OVCAR-5 = test: Growth inhibition of human OVCAR5 cells assessed as cell growth inhibition incubated for 48 hrs by sulforhodamine B assay; format: functional; conditions: OVCAR-5, 48 h
Hs-578T = test: Growth inhibition of human Hs 578T cells assessed as cell growth inhibition incubated for 48 hrs by sulforhodamine B assay; format: functional
Malme-3M = test: Growth inhibition of human MALME-3M cells assessed as cell growth inhibition incubated for 48 hrs by sulforhodamine B assay; format: functional
TK-10 = test: Growth inhibition of human TK10 cells assessed as cell growth inhibition incubated for 48 hrs by sulforhodamine B assay; format: functional; conditions: TK-10, 48 h
KM12 = test: Growth inhibition of human KM12 cells assessed as cell growth inhibition incubated for 48 hrs by sulforhodamine B assay; format: functional; conditions: KM12, 48 h
SW-620 = test: Growth inhibition of human SW620 cells assessed as cell growth inhibition incubated for 48 hrs by sulforhodamine B assay; format: functional; conditions: SW-620, 48 h
MDA-MB-435 = test: Growth inhibition of human MDA-MB-435 cells assessed as cell growth inhibition incubated for 48 hrs by sulforhodamine B assay; format: functional; conditions: MDA-MB-435, 48 h
LNCaP = test: Antiproliferative activity against human LNCAP cells assessed as reduction in cell viability; format: functional, cell-based
RXF 393 = test: Growth inhibition of human RXF393 cells assessed as cell growth inhibition incubated for 48 hrs by sulforhodamine B assay; format: functional; conditions: RXF 393, 48 h
SR = test: Growth inhibition of human SR cells assessed as cell growth inhibition incubated for 48 hrs by sulforhodamine B assay; format: functional
CCRF-CEM = test: Growth inhibition of human CCRF-CEM cells assessed as cell growth inhibition incubated for 48 hrs by sulforhodamine B assay; format: functional
LOX IMVI = test: Growth inhibition of human LOXIMVI cells assessed as cell growth inhibition incubated for 48 hrs by sulforhodamine B assay; format: functional
OVCAR-4 = test: Growth inhibition of human OVCAR4 cells assessed as cell growth inhibition incubated for 48 hrs by sulforhodamine B assay; format: functional; conditions: OVCAR-4, 48 h
MV4-11 [2] = test: Cell cycle arrest in human MV4-11 cells assessed as accumulation at G1 phase at 100 nM measured after 24 hrs by RNase/propidium iodide staining based FACScan flow cytometry (reference value: 59.66 %); format: functional
MV4-11 [3] = test: Induction of apoptosis in human MV4-11 cells at < 100 nM measured after 24 hrs by Annexin V-FITC/propidium iodide staining based FACScan flow cytometry relative to control; format: functional
SNB-75 = test: Growth inhibition of human SNB75 cells assessed as cell growth inhibition incubated for 48 hrs by sulforhodamine B assay; format: functional; conditions: SNB-75, 48 h
[4] = target: Protein cereblon/Bromodomain-containing protein 4/Cullin-4A (Homo sapiens) (UniProt O60885+Q96SW2+Q13619); test: Protac activity at cereblon/cullin4A/BRD4 in human MV4-11 cells assessed as induction of BRD4 degradation at 50 nM measured after 18 hrs by Western blot analysis relative to control; format: cell-based
MOLM-13 = test: Antiproliferative activity against human MOLM13 cells assessed as reduction in cell viability measured after 48 hrs by CellTiter-Glo assay; format: functional, cell-based; conditions: MOLM-13, 48 h
SF-539 = test: Growth inhibition of human SF539 cells assessed as cell growth inhibition incubated for 48 hrs by sulforhodamine B assay; format: functional; conditions: SF-539, 48 h
SN12C = test: Growth inhibition of human SN12C cells assessed as cell growth inhibition incubated for 48 hrs by sulforhodamine B assay; format: functional
SK-MEL-28 = test: Growth inhibition of human SK-MEL-28 cells assessed as cell growth inhibition incubated for 48 hrs by sulforhodamine B assay; format: functional; conditions: SK-MEL-28, 48 h
MCF7 = test: Growth inhibition of human MCF7 cells assessed as cell growth inhibition incubated for 48 hrs by sulforhodamine B assay; format: functional; conditions: MCF7, 48 h
DU-145 = test: Growth inhibition of human DU145 cells assessed as cell growth inhibition incubated for 48 hrs by sulforhodamine B assay; format: functional; conditions: DU-145, 48 h
UACC-62 = test: Growth inhibition of human UACC62 cells assessed as cell growth inhibition incubated for 48 hrs by sulforhodamine B assay; format: functional; conditions: UACC-62, 48 h
SNB-19 = test: Growth inhibition of human SNB19 cells assessed as cell growth inhibition incubated for 48 hrs by sulforhodamine B assay; format: functional; conditions: SNB-19, 48 h

COc1ccccc1S(=O)(=O)Nc1ccc2c3c(cc(CCC(=O)NCCCCNc4cccc5c4C(=O)N(C4CCC(=O)NC4=O)C5=O)cc13)C(=O)N2C (stereo not drawn)
IC50 (NCI-H358): 1380 nM | GI50 (HCC 2998): 316 nM | IC50 (NCI-H1975): 459 nM | GI50 (T47D): 34 nM | IC50 (RPMI-8226): 440 nM | GI50 (OVCAR-8): 360 nM | GI50 (HCT-116): 3660 nM | GI50 (SK-MEL-5): 1120 nM | GI50 (PC-3): 248 nM | GI50 (CAKI-1): 2630 nM | Activity (MV4-11 [1]): Dose-dependent effect | GI50 (MDA-MB-468): 20 nM | IC50 (A549): 13700 nM | GI50 (OVCAR-5): 2740 nM | GI50 (Hs-578T): 186 nM | GI50 (Malme-3M): 161 nM | GI50 (TK-10): 895 nM | GI50 (KM12): 675 nM | GI50 (SW-620): 249 nM | GI50 (MDA-MB-435): 819 nM | IC50 (LNCaP): 620 nM | GI50 (RXF 393): 864 nM | GI50 (SR): 122 nM | GI50 (CCRF-CEM): 28 nM | GI50 (LOX IMVI): 3970 nM | GI50 (OVCAR-4): 259 nM | Activity (MV4-11 [2]): 71.37% | Activity (MV4-11 [3]): 80% | GI50 (SNB-75): 89 nM | Activity [4]: 100% | IC50 (MOLM-13): 52 nM | GI50 (SF-539): 752 nM | GI50 (SN12C): 447 nM | GI50 (SK-MEL-28): 891 nM | GI50 (MCF7): 303 nM | GI50 (DU-145): 5910 nM | GI50 (UACC-62): 5450 nM | GI50 (SNB-19): 475 nM
